The record followed here is patent publication US11273153B2, “MAPK inhibitors” (EverBrilliant Pharma Pty Ltd, priority 2014, dated 2022).

Read-outs that look alike come from different tables or passages of the source.

Test [1] has as its target inactive non-phosphorylated p38α MAPK (Homo sapiens (Human), UniProt Q16539). Description: Fluorescence polarisation (FP) binding assay, inactive enzyme. As for the experimental part:
(§1) A number of compounds were also assessed for the inhibition of p38α MAPK activity (www.kinase-screen.mrc.ac.uk) in which a radioactive (^33P-labelled ATP) filter binding assay was used to directly measure phosphate incorporation. Table 1 summarises the binding affinities of the synthesised compounds to both forms of the enzyme as well as the inhibitory activities against p38α MAPK. By way of enabling a comparison with a non-thiophene compound the biological testing was also carried out for known inhibitor RWJ67657, shown in table 1.
(§2) FP signals were measured with a PHERAstar microplate reader (BMG Labtech) using black, low-binding half-area 96 well plates (Corning). Each binding data point was carried out in duplicate or triplicate. Data were recorded in millipolarisation (mP) units and measured at an excitation wavelength of 485 nm and an emission wavelength of 520 nm. Tris(hydroxymethyl)aminomethane (Tris) assay buffer was used in all binding experiments and consisted of 10 mM Tris, […] potassium chloride, and 3.5 mM 3-((3-cholamidopropyl)dimethylammonium)-1-propanesulfonate (Chaps) at pH 8.0.
(§3) Test compounds were prepared from dimethylsulfoxide stocks (10 mM). […] Plates were incubated at room temperature for 1 hour and FP signals were recorded. For binding experiments to active p38α MAPK, the FP signals were recorded after 2 hours incubation at room temperature. Data is represented as mean±SEM from two to three independent experiments.

The target in test [2] is active phosphorylated p38α MAPK (Homo sapiens (Human), UniProt Q16539). Description: Fluorescence polarisation (FP) binding assay, active enzyme. The protocol:
as §1, §2, §3

The mark [3] stands for this setting: Table 6, read-out: Ki ± SEM (μM) to inactive p38α.
[4] abbreviates: Table 6, read-out: Ki ± SEM (μM) to active p38α.
[5] abbreviates: Table 5, read-out: Ki ± SEM (μM) to inactive p38α MAPK.
[6] abbreviates: Table 5, read-out: Ki ± SEM (μM) to active p38α MAPK.
Where [7] appears, read: read-out: Ki to active p38α MAPK.

Sequence of inactive non-phosphorylated p38α MAPK (Q16539 whole entry): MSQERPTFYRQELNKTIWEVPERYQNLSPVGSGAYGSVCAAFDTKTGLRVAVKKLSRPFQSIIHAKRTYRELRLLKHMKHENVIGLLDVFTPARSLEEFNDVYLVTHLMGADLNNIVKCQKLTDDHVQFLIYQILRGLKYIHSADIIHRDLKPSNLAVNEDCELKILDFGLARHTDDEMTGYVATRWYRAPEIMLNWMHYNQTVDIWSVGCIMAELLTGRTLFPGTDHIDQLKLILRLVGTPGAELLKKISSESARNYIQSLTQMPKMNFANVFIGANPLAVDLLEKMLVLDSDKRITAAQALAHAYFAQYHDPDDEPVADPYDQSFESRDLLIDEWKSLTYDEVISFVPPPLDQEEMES
Sequence of active phosphorylated p38α MAPK (Q16539 whole entry): as above

Regarding `Fc1ccc(-c2scc(C#CCc3ccccc3)c2-c2ccncc2)cc1` [Compound 4.19, 4-(2-(4-Fluorophenyl)-4-(3-phenylprop-1-yn-1-yl)thiophen-3-yl)pyridine], the “binding to p38α MAPK, in words” value in test [1] is “complete loss of binding”. Besides, the Ki in test [1] (Table 1, read-out: Ki (μM, mean ± SEM) inactive p38α) is over 10 µM; in test [1] (setting [3]), over 10 µM; in test [2] (Table 1, read-out: Ki (μM, mean ± SEM) active p38α) it was 9.44 µM; in test [2] (setting [4]), 9.4 µM.

On to `Fc1ccc(-c2sc(-c3ccco3)cc2-c2ccncc2)cc1` [Compound 5.18, 4-(2-(4-Fluorophenyl)-5-(furan-2-yl)thiophen-3-yl)pyridine], for which the Ki in test [1] (setting [5]) is over 10 µM; in test [1] (setting [3]) it was over 10 µM; in test [2] (setting [6]) it was 1.7 µM; in test [2] (setting [4]), 1.7 µM.

Consider `CC(=O)c1cc(-c2ccncc2)c(-c2ccc(F)cc2)s1` [Compound 5.15, 1-(5-(4-Fluorophenyl)-4-(pyridin-4-yl)thiophen-2-yl)ethanone], for which the Ki was found to be 6.4 ± 0.6 µM in test [1] (setting [5]), 6.4 ± 0.6 µM in test [1] (setting [3]), 1.4 µM in test [2] (setting [6]) and 1.4 µM in test [2] (setting [4]).

Turning to `NCC#Cc1cc(-c2ccncc2)c(-c2ccc(F)cc2)s1` [Compound 5.6, 3-(5-(4-Fluorophenyl)-4-(pyridin-4-yl)thiophen-2-yl)prop-2-yn-1-amine], the Ki in test [1] (setting [5]) and in test [1] (setting [3]) was over 10 µM each time.

For `Nc1cccc(-c2c(C#CCCO)sc(-c3ccc(F)cc3)c2-c2ccncc2)c1` [Compound 3.39, 4-(3-(3-Aminophenyl)-5-(4-fluorophenyl)-4-(pyridin-4-yl)thiophen-2-yl)but-3-yn-1-ol], the Ki was over 10 µM in test [1] (setting [3]) and 3.2 µM in test [2] (setting [4]).

Regarding `O=C(O)c1cccc(-c2c(C#CCCO)sc(-c3ccc(F)cc3)c2-c2ccncc2)c1` [Compound 3.31, 3-(5-(4-Fluorophenyl)-2-(4-hydroxybut-1-yn-1-yl)-4-(pyridin-4-yl)thiophen-3-yl)benzoic acid], the Ki is over 10 µM in test [1] (setting [3]) and 7.1 µM in test [2] (setting [4]).

Turning to `Nc1ccc(-c2c(C#CCCO)sc(-c3ccc(F)cc3)c2-c2ccncc2)cc1` [Compound 3.40, 4-(3-(4-Aminophenyl)-5-(4-fluorophenyl)-4-(pyridin-4-yl)thiophen-2-yl)but-3-yn-1-ol], the Ki in test [1] (setting [3]) and in test [2] (setting [4]) was over 10 µM each time.

`O=C(O)c1cc(-c2ccncc2)c(-c2ccc(F)cc2)s1` [Compound 5.12, 5-(4-Fluorophenyl)-4-(pyridin-4-yl)thiophene-2-carboxylic acid]: the Ki in test [1] (setting [5]) was 17 ± 2 µM; in test [1] (setting [3]), 17 ± 2 µM; in test [2] (setting [6]), 1.4 µM; in test [2] (setting [4]) it was 1.4 µM.

For the compound `O=C(Nc1ccc(-c2c(C#CCCO)sc(-c3ccc(F)cc3)c2-c2ccncc2)cc1)c1ccccc1` [Compound 3.44, N-(4-(5-(4-fluorophenyl)-2-(4-hydroxybut-1-yn-1-yl)-4-(pyridin-4-yl)thiophen-3-yl)phenyl)benzamide], the Ki in test [1] (setting [3]) and in test [2] (setting [4]) was over 10 µM each time.

Turning to `COC(=O)c1cccc(-c2c(C#CCCO)sc(-c3ccc(F)cc3)c2-c2ccncc2)c1` [Compound 3.29, Methyl 3-(5-(4-fluorophenyl)-2-(4-hydroxybut-1-yn-1-yl)-4-(pyridin-4-yl)thiophen-3-yl)benzoate], the Ki in test [1] (setting [3]) is over 10 µM; in test [2] (setting [4]) it was 3 µM.

On to `O=C(NCCO)c1cccc(-c2c(C#CCCO)sc(-c3ccc(F)cc3)c2-c2ccncc2)c1` [Compound 3.37, 3-(5-(4-Fluorophenyl)-2-(4-hydroxybut-1-yn-1-yl)-4-(pyridin-4-yl)thiophen-3-yl)-N-(2-hydroxyethyl)benzamide], for which the Ki in test [1] (setting [3]) came out at 1.9 ± 0.2 µM; in test [2] (setting [4]), 2 ± 1 µM.

Take `COC(=O)c1ccccc1-c1c(C#CCCO)sc(-c2ccc(F)cc2)c1-c1ccncc1` [Compound 3.28, Methyl 2-(5-(4-fluorophenyl)-2-(4-hydroxybut-1-yn-1-yl)-4-(pyridin-4-yl)thiophen-3-yl)benzoate]: the Ki in test [1] (setting [3]) is over 10 µM; in test [2] (setting [4]), 8.7 µM.

For the compound `Fc1ccc(-c2sc(C#CCCN3CCOCC3)cc2-c2ccncc2)cc1` [Compound 5.8, 4-(4-(5-(4-Fluorophenyl)-4-(pyridin-4-yl)thiophen-2-yl)but-3-yn-1-yl)morpholine], the Ki in test [1] (setting [5]) was found to be 2.2 ± 0.2 µM; in test [1] (setting [3]), 2.2 ± 0.2 µM; in test [2] (setting [6]), 2.5 µM; in test [2] (setting [4]), 2.5 µM; in test [2] (setting [7]), 2.5 µM.

In the case of `Fc1ccc(-c2sccc2-c2ccncc2)cc1` [Compound 3.2, 4-(2-(4-Fluorophenyl)thiophen-3-yl)pyridine], the Ki in test [1] (setting [5]) came to 5 ± 0.4 µM; in test [1] (setting [3]), 5 ± 0.4 µM; in test [2] (setting [6]), 0.6 ± 0.1 µM; in test [2] (setting [4]), 0.6 ± 0.1 µM.

For the compound `Fc1ccc(-c2sc(I)c(I)c2-c2ccncc2)cc1` [Compound 3.3, 4-(2-(4-Fluorophenyl)-4,5-diiodothiophen-3-yl)pyridine], the Ki in test [1] (setting [3]) and in test [2] (setting [4]) was over 10 µM in each case.

In the case of `O=C(O)c1ccc(-c2c(C#CCCO)sc(-c3ccc(F)cc3)c2-c2ccncc2)cc1` [Compound 3.32, 4-(5-(4-Fluorophenyl)-2-(4-hydroxybut-1-yn-1-yl)-4-(pyridin-4-yl)thiophen-3-yl)benzoic acid], the Ki in test [1] (setting [3]) and in test [2] (setting [4]) was over 10 µM throughout.

Take `Cc1ccc(S(=O)(=O)Nc2ccc(-c3c(C#CCCO)sc(-c4ccc(F)cc4)c3-c3ccncc3)cc2)cc1` [Compound 3.46, N-(4-(5-(4-fluorophenyl)-2-(4-hydroxybut-1-yn-1-yl)-4-(pyridin-4-yl)thiophen-3-yl)phenyl)-4-methylbenzenesulfonamide]: the Ki in test [1] (setting [3]) and in test [2] (setting [4]) was over 10 µM in each case.

As for `N#Cc1cccc(-c2c(C#CCCO)sc(-c3ccc(F)cc3)c2-c2ccncc2)c1` [Compound 3.47, 3-(5-(4-Fluorophenyl)-2-(4-hydroxybut-1-yn-1-yl)-4-(pyridin-4-yl)thiophen-3-yl)benzonitrile], the Ki is over 10 µM in test [1] (setting [3]) and 1.8 ± 0.4 µM in test [2] (setting [4]).

On to `NCCC#Cc1cc(-c2ccncc2)c(-c2ccc(F)cc2)s1` [Compound 5.7, 4-(5-(4-Fluorophenyl)-4-(pyridin-4-yl)thiophen-2-yl)but-3-yn-1-amine], for which the Ki in test [1] (setting [5]) amounted to 1.1 ± 0.2 µM; in test [1] (setting [3]) it was 1.1 ± 0.2 µM; in test [2] (setting [6]) it was 0.19 ± 0.04 µM; in test [2] (setting [4]), 0.19 ± 0.04 µM; in test [2] (setting [7]), 0.19 µM.

As to `CC(=O)c1ccc(-c2c(C#CCCO)sc(-c3ccc(F)cc3)c2-c2ccncc2)cc1` [Compound 3.53, 1-(4-(5-(4-Fluorophenyl)-2-(4-hydroxybut-1-yn-1-yl)-4-(pyridin-4-yl)thiophen-3-yl)phenyl)ethanone], the Ki in test [1] (setting [3]) was over 10 µM; in test [2] (setting [4]), 2.2 ± 0.3 µM.

On to `O=C(c1cc(-c2ccncc2)c(-c2ccc(F)cc2)s1)N1CCNCC1` [Compound 5.14, (5-(4-Fluorophenyl)-4-(pyridin-4-yl)thiophen-2-yl) (piperazin-1-yl)methanone], for which the Ki in test [1] (setting [5]) came out at 6.3 ± 0.4 µM; in test [1] (setting [3]), 6.3 ± 0.4 µM; in test [2] (setting [6]) it was 0.9 ± 0.1 µM; in test [2] (setting [4]), 0.9 ± 0.1 µM.

With `CN(C)c1ccc(-c2c(C#CCCO)sc(-c3ccc(F)cc3)c2-c2ccncc2)cc1` [Compound 3.49, 4-(3-(4-(Dimethylamino)phenyl)-5-(4-fluorophenyl)-4-(pyridin-4-yl)thiophen-2-yl)but-3-yn-1-ol], the Ki in test [1] (setting [3]) and in test [2] (setting [4]) was over 10 µM each time.

In the case of `OCCC#Cc1sc(-c2ccc(F)cc2)c(-c2ccncc2)c1-c1ccc(C(F)(F)F)cc1` [Compound 3.52, 4-(5-(4-Fluorophenyl)-4-(pyridin-4-yl)-3-(4-(trifluoromethyl)phenyl)thiophen-2-yl)but-3-yn-1-ol], the Ki in test [1] (setting [3]) and in test [2] (setting [4]) was over 10 µM throughout.

`OCCC#Cc1sc(-c2ccc(F)cc2)c(-c2ccncc2)c1-c1ccc(Cl)cc1` [Compound 3.51, 4-(3-(4-Chlorophenyl)-5-(4-fluorophenyl)-4-(pyridin-4-yl)thiophen-2-yl)but-3-yn-1-ol]: the Ki in test [1] (setting [3]) and in test [2] (setting [4]) was over 10 µM in each case.

Regarding `OCCC#Cc1sc(-c2ccc(F)cc2)c(-c2ccncc2)c1I` [Compound 3.55, 4-(5-(4-Fluorophenyl)-3-iodo-4-(pyridin-4-yl)thiophen-2-yl)but-3-yn-1-ol], the Ki in test [1] (setting [3]) and in test [2] (setting [4]) was over 10 µM throughout.

For `Cc1ccc(S(=O)(=O)Nc2cccc(-c3c(C#CCCO)sc(-c4ccc(F)cc4)c3-c3ccncc3)c2)cc1` [Compound 3.45, N-(3-(5-(4-fluorophenyl)-2-(4-hydroxybut-1-yn-1-yl)-4-(pyridin-4-yl)thiophen-3-yl)phenyl)-4-methylbenzenesulfonamide], the Ki in test [1] (setting [3]) and in test [2] (setting [4]) was over 10 µM each time.

As to `Fc1ccc(-c2sc(I)cc2-c2ccncc2)cc1` [Compound 5.1, 4-(2-(4-Fluorophenyl)-5-iodothiophen-3-yl)pyridine], the Ki in test [1] (setting [5]) was 1.9 ± 0.4 µM; in test [1] (setting [3]) it was 1.9 ± 0.4 µM; in test [2] (setting [6]) it was 2.3 µM; in test [2] (setting [4]) it was 2.3 µM.
